Source: patent US5952368A, “5-aroylpyrrol-2-ylmethylarene derivatives” (Syntex (U.S.A.) Inc., priority 1997, dated 1999)
pIC50: −log10 of the molar value.

Columns and labels:
COX I = biological target: T1, COX I (Homo sapiens, UniProt P23219); assay: Inhibition of COX I in vitro (radiometric assay, 14C arachidonic acid, partially purified enzyme); assay type: biochemical; conditions: partially purified COX I, 20 micromolar arachidonic acid, 10 min preincubation, room temperature; read-out: COX I IC50
T1 construct: made in house; baculovirus-infected insect cells by own knowledge of the cited Barnett et al. 1994
Procedure: (§1) The COX I and COX II inhibitory activity of compounds of this invention in vitro was determined using partially purified COX I and COX II enzymes, prepared as described in J. Barnett et al., Biochim. Biophys. Acta, 1209:130--139 (1994).
(§2) COX I and COX II samples were diluted with Tris-HCl buffer (50 mM Tris-HCl pH 7.9) containing 2 mM EDTA and 10% glycerol and reconstituted by incubating first with 2 mM phenol for 5 minutes and then with 1 micromolar hematin for an additional 5 minutes. 125 μl of the reconstituted COX I or COX II enzyme were preincubated for 10 minutes at room temperature in a shaking water bath with the compounds of the invention dissolved in 2-15 μl of DMSO or the carrier vehicles (control samples). The enzyme reaction was initiated by adding 25 μl of 1-[14C] arachidonic acid (80,000-100,000 cpm/tube; 20 micromolar final concentration) and the reaction was allowed to continue for an additional 45 seconds. The reaction was terminated by adding 100 μl of 2N HCl and 750 μl water. An aliquot (950 μl) of the reaction mixture was loaded onto a 1 ml C18 Sep-Pak column (J. T. Baker, Phillipsburg, N.J.) which had been previously washed with 2-3 ml methanol and equilibrated with 5-6 ml distilled water. Oxygenated products were quantitatively eluted with 3 ml of acetonitrile/water/acetic acid (50:50:0.1, v/v) and the radioactivity in the eluate determined in a scintillation counter.

air pouch PGE2 formation = assay: Inhibition of eicosanoid (PGE2) synthesis in vivo: carrageenan air-pouch model in rats; set-up: species or system rat; conditions: oral, male rats
Procedure: In this assay, an air-pouch is created in the rat and the PGE2 levels in the air-pouch exudate are measured by enzyme immunoassay. Briefly, male rats were anesthetized using a 60:40 CO2 :O2 mixture and subsequently injected subcutaneously with 20 ml of sterilized air, under aseptic conditions, in the proximal area of the dorsum. This injection of sterile air causes the creation of a subcutaneous "air pouch". The next day, a further 10 ml of sterile air was injected into the previously formed pouch using the same technique. […] Control rats received vehicle alone. After 30 minutes, 5 ml of a 0.5% solution of carrageenan (Sigma, Lambda Type IV) was injected into the air pouch. The rats were euthanized 3 or 6 h after the compound administration. […] The total exudate volume was recorded, and the samples were analyzed for PGE2 and 6-keto PGF1 by ELISA (Titerzyme®, PerSeptive Diagnostics) and TxB2 by radioimmuno assay (New England Nuclear Research, Catalog No. NEK-037), according to the manufacturer's directions.
The mean concentrations of PGE2 were calculated for each group. The anti-inflammatory activity of test materials is expressed as the percent inhibition of PGE2 formation in the test group relative to the control group.

[1] = tested on: carrageenan-induced paw edema; assay: Anti-inflammatory activity: inhibition of carrageenan-induced paw edema in the rat; assay type: in vivo; conditions: 10 mg/Kg, oral, female rats, 3 h after carrageenan
Procedure: The anti-inflammatory activity of compounds of this invention was determined by measuring the inhibition of carrageenan-induced paw edema in the rat, using a modification of the method described in Winter C. A. et al. (1962) "Carrageenan-Induced Edema in Hind Paw of the Rat as an Assay for Anti-inflammatory Drugs". Proc. Soc. Exp. Biol. Med. 111: 544-547. This assay has been used as a primary in vivo screen for anti-inflammatoryactivity of most NSAIDs, and is considered predictive of human efficacy. Briefly, test materials were administered orally to female rats in a volume of 1 ml prepared as solutions or suspensions in an aqueous vehicle containing 0.9% NaCl, 0.5% sodium carboxymethyl-cellulose, 0.4% polysorbate 80, 0.9% benzyl alcohol and 97.3% distilled water. Control rats received vehicle alone. After 1 h 0.05 ml of a 0.5% solution of Carrageenan (Type IV Lambda, Sigma Chemical Co.) in 0.9% saline was injected into the subplantar region of the right hind paw. Three hours later the rats were euthanized in a carbon dioxide atmosphere; hind paws were removed by severing at the tatso-crural joint; and the left and right paws were weighed. The increase in weight of the right paw over the left paw was obtained for each animal and the mean increases were calculated for each group. The anti-inflammatory activity of the test materials is expressed as the percent inhibition of the increase in hind paw weight of the test group relative to the vehicle-dosed control group.

COX II = biological target: T2, COX II (Homo sapiens, UniProt P35354); assay: Inhibition of COX II in vitro (radiometric assay, 14C arachidonic acid, partially purified enzyme); assay type: biochemical; conditions: partially purified COX II, 20 micromolar arachidonic acid, 10 min preincubation, room temperature; read-out: COX II IC50
T2 construct: made in house; baculovirus-infected insect cells by own knowledge of the cited Barnett et al. 1994
T2 sequence (P35354 18-604): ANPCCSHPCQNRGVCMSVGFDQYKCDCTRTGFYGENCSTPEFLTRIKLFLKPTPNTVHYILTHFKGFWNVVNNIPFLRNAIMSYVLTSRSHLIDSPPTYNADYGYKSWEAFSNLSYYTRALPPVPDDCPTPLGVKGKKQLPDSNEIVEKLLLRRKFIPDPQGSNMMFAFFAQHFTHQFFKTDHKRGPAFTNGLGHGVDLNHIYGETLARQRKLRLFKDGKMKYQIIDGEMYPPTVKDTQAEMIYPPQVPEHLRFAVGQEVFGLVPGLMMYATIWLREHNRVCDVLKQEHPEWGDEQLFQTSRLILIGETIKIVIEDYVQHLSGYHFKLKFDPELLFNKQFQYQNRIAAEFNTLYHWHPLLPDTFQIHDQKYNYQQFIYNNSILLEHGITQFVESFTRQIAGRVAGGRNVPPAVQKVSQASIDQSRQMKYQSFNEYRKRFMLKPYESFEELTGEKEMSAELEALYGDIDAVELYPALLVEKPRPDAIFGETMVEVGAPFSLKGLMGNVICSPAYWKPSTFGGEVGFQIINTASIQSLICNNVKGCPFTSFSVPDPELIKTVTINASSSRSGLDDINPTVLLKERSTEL
Procedure: as §1, §2

[2] = tested on: acetic acid-induced writhing; assay: Analgesic activity: Acetic Acid-induced Rat Writhing Assay; assay type: in vivo; conditions: 10 mg/Kg, oral, male Sprague Dawley rats
Description: The analgesic activity of compounds of this invention may be determined by the Acetic Acid-induced Rat Writhing Assay, using a modification of the method described in Berkenkopf, J. W. and Weichman, B. M. "Production of Prostacyclin in Mice following Intraperitoneal Injection of Acetic Acid, Phenylbenzoquinone and Zymosan: Its Role in the Writhing Response" Prostaglandins: 36: 693-70 (1988). This assay is one of several acute assays which have been used to assess the analgesic activity of NSAIDs, and is considered predictive of human efficacy. The test materials were administered orally to male Sprague Dawley rats in a volume of 1 ml/100 g body weight as solutions or suspensions in an aqueous vehicle containing 0.9% NaCl 0.5% sodium carboxymethyl-cellulose, 0.4% polysorbate 80, 0.9% benzyl alcohol and 97.3% water. Control rats received vehicle alone. One hour after compound administration, 0.3 ml/100 g body weight of 0.75% solution of acetic acid was injected intraperitoneally. The acetic acid injection induces a series of characteristic writhing responses, which were counted over the period between 15 and 30 minutes after the injection. The analgesic activity of test materials is expressed as the percentage inhibition of writhing in the test group relative to the control group.

T1 sequence (P23219 24-599): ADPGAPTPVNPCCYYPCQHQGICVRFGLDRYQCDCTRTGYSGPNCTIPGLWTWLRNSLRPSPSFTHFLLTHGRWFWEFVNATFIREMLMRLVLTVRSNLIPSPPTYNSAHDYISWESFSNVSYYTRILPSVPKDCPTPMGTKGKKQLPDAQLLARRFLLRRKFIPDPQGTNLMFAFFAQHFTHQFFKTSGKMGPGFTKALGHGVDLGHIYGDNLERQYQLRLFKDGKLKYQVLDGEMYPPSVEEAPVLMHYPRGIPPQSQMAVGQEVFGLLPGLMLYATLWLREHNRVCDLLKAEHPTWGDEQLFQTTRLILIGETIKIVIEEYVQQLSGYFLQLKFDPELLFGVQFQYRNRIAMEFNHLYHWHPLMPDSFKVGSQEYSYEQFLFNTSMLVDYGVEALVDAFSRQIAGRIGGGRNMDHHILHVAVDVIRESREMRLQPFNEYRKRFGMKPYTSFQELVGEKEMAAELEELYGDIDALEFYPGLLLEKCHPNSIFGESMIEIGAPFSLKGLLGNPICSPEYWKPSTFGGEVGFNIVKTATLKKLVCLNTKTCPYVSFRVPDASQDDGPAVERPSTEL

## Cc1cc(Cc2ccc(NS(C)(=O)=O)cc2C#N)n(C)c1C(=O)c1ccc(Cl)cc1 [compound 19, N-{3-Cyano-4-[5-(4-chlorobenzoyl)-1,4-dimethyl-1H-pyrrol-2-ylmethyl]phenyl}-methanesulfonamide]
COX I
  pIC50: 6.12
Air pouch PGE2 formation; 10 mg/Kg, 3 hr
  % Inhibition of air pouch PGE2 formation: 74%
[1]
  % Inhibition (of the increase in hind paw weight): 36%
COX II
  pIC50: 7.10

## Cc1ccc(C(=O)c2ccc(Cc3ccc(NS(=O)(=O)CCO)cc3F)n2C)cc1 [compound 36, N-{3-Fluoro-4-[5-(4-methylbenzoyl)-1-methyl-1H-pyrrol-2-ylmethyl]phenyl}-2-(hydroxy)ethanesulfonamide]
COX I
  pIC50: 5.00
[2]
  % Inhibition of writhing responses: 16%
Air pouch PGE2 formation; 10 mg/Kg, 3 hr
  % Inhibition of air pouch PGE2 formation: 96%
[1]
  % Inhibition (of the increase in hind paw weight): 31%
COX II
  pIC50: 7.30

## Cc1ccc(C(=O)c2ccc(Cc3ccc(NS(=O)(=O)CCO)cc3F)n2C)c(C)c1 [compound 48, N-{3-Fluoro-4-[5-(2,4-dimethylbenzoyl)-1-methyl-1H-pyrrol-2-ylmethyl]phenyl}-2-(hydroxy)ethanesulfonamide]
COX I
  pIC50: 4.21
Air pouch PGE2 formation; 30 mg/Kg, 3 hr
  % Inhibition of air pouch PGE2 formation: 64%
[1]
  % Inhibition (of the increase in hind paw weight): 35%
COX II
  pIC50: 7.10

## COc1ccc(C(=O)c2c(C)cc(Cc3ccc(NS(=O)(=O)CCO)cc3F)n2C)cc1 [compound 98, N-{3-Fluoro-4-[5-(4-methoxybenzoyl)-1,4-dimethyl-1H-pyrrol-2-ylmethyl]phenyl}-2-(hydroxy)ethanesulfonamide]
COX I
  pIC50: > 7.00
[2]
  % Inhibition of writhing responses: 71%
Air pouch PGE2 formation; 10 mg/Kg, 3 hr
  % Inhibition of air pouch PGE2 formation: 98%
[1]
  % Inhibition (of the increase in hind paw weight): 42%
COX II
  pIC50: 6.64

## Cc1cc(Cc2ccc(NS(=O)(=O)N(C)C)cc2)n(C)c1C(=O)c1ccc(Cl)cc1 [compound 140, 1-{4-[5-(4-Chlorobenzoyl)-1,4-dimethyl-1H-pyrrol-2-ylmethyl]phenyl}-3,3-di-methylsulfamide]
COX I
  pIC50: 5.27
[2]
  % Inhibition of writhing responses: 4%
Air pouch PGE2 formation; 30 mg/Kg, 6 hr
  % Inhibition of air pouch PGE2 formation: 83%
[1]
  % Inhibition (of the increase in hind paw weight): 27%
COX II
  pIC50: 6.92

## Cc1cc(Cc2ccc(NS(N)(=O)=O)cc2F)n(C)c1C(=O)c1ccc(Cl)cc1 [compound 146, 1-{3-Fluoro-4-[5-(4-chlorobenzoyl)-1,4-dimethyl-1H-pyrrol-2-ylmethyl]phenyl}sulfamide]
COX I
  pIC50: 5.54
Air pouch PGE2 formation; 10 mg/Kg, 3 hr
  % Inhibition of air pouch PGE2 formation: 93%
[1]
  % Inhibition (of the increase in hind paw weight): 40%
COX II
  pIC50: 7.22

## Cc1ccc(C(=O)c2ccc(Cc3ccc(NS(N)(=O)=O)cc3F)n2C)c(C)c1 [compound 165, 1-{3-Fluoro-4-[5-(2,4-dimethylbenzoyl)-1-methyl-1H-pyrrol-2-ylmethyl]phenyl}sulfamide]
COX I
  pIC50: 4.77
Air pouch PGE2 formation; 10 mg/Kg, 3 hr
  % Inhibition of air pouch PGE2 formation: 52%
[1]
  % Inhibition (of the increase in hind paw weight): 17%
COX II
  pIC50: 7.02

## CNC(=S)Nc1ccc(Cc2cc(C)c(C(=O)c3ccc(Cl)cc3)n2C)cc1 [compound 236]
COX I
  pIC50: 4.82
Air pouch PGE2 formation; 30 mg/Kg, 6 hr
  % Inhibition of air pouch PGE2 formation: 71%
COX II
  pIC50: 6.29

## Cc1cc(Cc2ccc(NS(C)(=O)=O)cn2)n(C)c1C(=O)c1ccc(Cl)cc1 [compound 263, N-{2-[5-(4-Chlorobenzoyl)-1,4-dimethyl-1H-pyrrol-2-ylmethyl]pyridin-5-yl}-methanesulfonamide]
COX I
  pIC50: 4.31
[2]
  % Inhibition of writhing responses: 31%
Air pouch PGE2 formation; 30 mg/Kg, 6 hr
  % Inhibition of air pouch PGE2 formation: 80%
[1]
  % Inhibition (of the increase in hind paw weight): 40%
COX II
  pIC50: 6.35

## Cc1ccc(C(=O)c2ccc(Cc3ccc(NS(C)(=O)=O)cn3)n2C)cc1 [compound 271, N-{2-[5-(4-Methylbenzoyl)-1-methyl-1H-pyrrol-2-ylmethyl]pyridin-5-yl}methane-sulfonamide]
COX I
  pIC50: 4.05
Air pouch PGE2 formation; 10 mg/Kg, 3 hr
  % Inhibition of air pouch PGE2 formation: 56%
COX II
  pIC50: 6.37

## COc1ccc(C(=O)c2c(C)cc(Cc3ncc(NS(C)(=O)=O)cc3Cl)n2C)cc1 [compound 284, N-{3-Chloro-2-[5-(4-methoxybenzoyl)-1,4-dimethyl-1H-pyrrol-2-ylmethyl]pyridin-5-yl}-methanesulfonamide]
COX I
  pIC50: 4.66
Air pouch PGE2 formation; 10 mg/Kg, 3 hr
  % Inhibition of air pouch PGE2 formation: 65%
COX II
  pIC50: 6.30

## COc1ccc(C(=O)c2ccc(Cc3ccc(NS(C)(=O)=O)cn3)n2C)cc1 [compound 288, N-{2-[5-(4-Methoxybenzoyl)-1-methyl-1H-pyrrol-2-ylmethyl]pyridin-5-yl}-methanesulfonamide]
COX I
  pIC50: 3.63
Air pouch PGE2 formation; 10 mg/Kg, 3 hr
  % Inhibition of air pouch PGE2 formation: 53%
[1]
  % Inhibition (of the increase in hind paw weight): 20%
COX II
  pIC50: 6.26

## CSc1ccc(C(=O)c2c(C)cc(Cc3ccc(N)cn3)n2C)cc1 [compound 334, {2-[5-(4-Methylthiobenzoyl)-1,4-dimethyl-1H-pyrrol-2-ylmethyl]pyridin-5-yl}amine]
COX I
  pIC50: 4.74
Air pouch PGE2 formation; 10 mg/Kg, 3 hr
  % Inhibition of air pouch PGE2 formation: 44%
COX II
  pIC50: 6.19

## Cc1cc(Cc2ccc(O)cc2)n(C)c1C(=O)c1ccc(Cl)cc1 [compound 343, 4-{5-(4-Chlorobenzoyl)-1,4-dimethyl-1H-pyrrol-2-ylmethyl}phenol]
COX I
  pIC50: 5.18
[1]
  % Inhibition (of the increase in hind paw weight): 35%
COX II
  pIC50: 6.27
